Common to all, as to test: ≥ marks a high value that may be exact or a test limit, other limits are often not marked, values filed in µg/mL are converted to µM
Test [1] has as its system Enterococcus faecalis ATCC 29212.
Test [2] deals with Escherichia coli ATCC 25922.
The subject of test [3] is Staphylococcus aureus ATCC 25923.
For test [4], the system named is Enterococcus casseliflavus ATCC 700327.
The subject of test [5] is Staphylococcus epidermidis ATCC 12228.
The subject of test [6] is Klebsiella pneumoniae ATCC 13883.
In test [7] the test system is Pseudomonas aeruginosa ATCC 27853.
Test [8] deals with Klebsiella pneumoniae.
The subject of test [9] is Salmonella enterica subsp. enterica serovar Pullorum C79-13.
The test system of test [10] is Streptococcus agalactiae.
In test [11] the test system is Staphylococcus aureus.
Test [12] deals with Staphylococcus aureus ATCC 29213.
Test [13] deals with Salmonella enterica subsp. enterica serovar Typhimurium ATCC 14028.
Test [14] has as its system Escherichia coli UB1005.
For test [15], the system named is Salmonella enterica subsp. enterica serovar Typhimurium C77-31.
The subject of test [16] is Staphylococcus aureus ATCC 43300.
Test [17] concerns Salmonella enterica subsp. enterica serovar Choleraesuis CVCC 503.
Test [18] has as its system Escherichia coli NBRC 3972.
Test [19] relates to Staphylococcus epidermidis NBRC 12993.
Test [20] concerns Micrococcus luteus NBRC 3333.
Test [21] deals with Candida viswanathii NBRC 10321.
Test [22] deals with Aspergillus oryzae NBRC 100959.
The test system of test [23] is Salmonella enterica subsp. enterica serovar Typhimurium ATCC 14028s.
The subject of test [24] is Corynebacterium xerosis.
The subject of test [25] is Pseudomonas aeruginosa K799.
Test [26] deals with Streptococcus pyogenes ATCC 19615.
For test [27], the system named is Streptococcus mitis.
Test [28] has as its system Staphylococcus epidermidis C621.
The subject of test [29] is Streptococcus pneumoniae ATCC 49619.
The subject of test [30] is Listeria monocytogenes.

Values after ≈ are worked out from the molar mass of the structure shown.

As a reminder, the MIC is the smallest concentration in the dilution series that meets the test's criterion for growth inhibition. Low readings indicate inhibition by little substance, high ones a need for much substance. In the case of `CC[C@H](C)[C@H](NC(=O)[C@@H](N)Cc1ccccc1)C(=O)NCC(=O)N[C@H](C(=O)N[C@@H](CC(C)C)C(=O)N[C@H](C(=O)N1CCC[C@H]1C(=O)N[C@@H](CC(C)C)C(=O)N[C@@H](C)C(=O)N[C@@H](CC(C)C)C(=O)NCC(=O)N[C@@H](C)C(=O)N[C@@H](CC(C)C)C(=O)N[C@H](C(=O)N[C@@H](CCCCN)C(=O)N[C@@H](CC(C)C)C(=O)N[C@@H](Cc1ccccc1)C(=O)N[C@@H](CCCCN)C(N)=O)[C@@H](C)O)[C@@H](C)CC)[C@@H](C)O` [FIGTLIPLALGALTKLFK], the MIC in test [1] worked out at 8 µM (≈ 15.3 µg/mL); in test [2], 16 µM (≈ 30.6 µg/mL); in test [3], 4 µM (≈ 7.66 µg/mL); in test [4] it was 16 µM (≈ 30.6 µg/mL); in test [5], 2 µM (≈ 3.83 µg/mL); in test [6], 4 µM (≈ 7.66 µg/mL).
Regarding `CC[C@H](C)[C@H](NC(=O)[C@H](C)NC(=O)CNC(=O)[C@H](CC(C)C)NC(=O)[C@@H](N)Cc1ccccc1)C(=O)N[C@@H](CC(C)C)C(=O)N[C@@H](CCCCN)C(=O)N[C@H](C(=O)NCC(=O)N[C@@H](Cc1cnc[nH]1)C(=O)N[C@@H](C)C(=O)N[C@@H](CC(C)C)C(=O)N[C@@H](C)C(=O)N[C@@H](CCCCN)C(=O)N[C@H](C(=O)N[C@H](C(=O)N[C@@H](CC(C)C)C(=O)N1CCC[C@H]1C(=O)N[C@@H](CCSC)C(=O)N[C@H](C(=O)N[C@H](C(=O)N[C@@H](CC(N)=O)C(=O)N[C@@H](C)C(=O)N[C@@H](Cc1ccccc1)C(=O)N[C@@H](CCCCN)C(=O)N1CCC[C@H]1C(=O)N[C@@H](CCCCN)C(=O)N[C@@H](CCC(N)=O)C(=O)O)[C@@H](C)O)C(C)C)C(C)C)[C@@H](C)O)[C@@H](C)CC` [FLGAILKIGHALAKTVLPMVTNAFKPKQ], the MIC in test [1] was 8 µM (≈ 24.1 µg/mL); in test [7], 32 µM (≈ 96.2 µg/mL); in test [2], 8 µM (≈ 24.1 µg/mL); in test [3], 8 µM (≈ 24.1 µg/mL); in [4] it was 4 µM (≈ 12 µg/mL); in test [5], 4 µM (≈ 12 µg/mL). In addition, the values for the minimum inhibitory concentration (MIC) in test [6] and in test [8] were 8 µM (≈ 24.1 µg/mL) and 16 µM (≈ 48.1 µg/mL), respectively.
Turning to `CC[C@H](C)[C@H](N)C(=O)N[C@@H](CS)C(=O)N[C@@H](CCCN=C(N)N)C(=O)N[C@@H](CCCCN)C(=O)N1CCC[C@H]1C(=O)N[C@H](C(=O)N[C@H](C(=O)N[C@@H](CS)C(=O)N[C@@H](CCCN=C(N)N)C(=O)N[C@@H](CCCCN)C(=O)N1CCC[C@H]1C(=O)N[C@H](C(=O)N[C@H](C(=O)N[C@@H](CS)C(=O)N[C@@H](CCCN=C(N)N)C(=O)N[C@@H](CCCCN)C(=O)N1CCC[C@H]1C(=O)N[C@H](C(=O)N[C@H](C(=O)N[C@@H](CS)C(=O)N[C@@H](CCCN=C(N)N)C(=O)N[C@@H](CCCCN)C(=O)N1CCC[C@H]1C(=O)N[C@H](C(N)=O)[C@@H](C)CC)[C@@H](C)CC)[C@@H](C)CC)[C@@H](C)CC)[C@@H](C)CC)[C@@H](C)CC)[C@@H](C)CC` [ICRKPIICRKPIICRKPIICRKPI], the minimal inhibitory concentration (MIC) was > 64 µM in test [1]; 16 µM (≈ 45.8 µg/mL) in test [9]; ≥ 64 µM in test [10]; > 64 µM in [11]; > 64 µM in [5]; > 64 µM in [12]. Moreover, the minimum inhibitory concentration (MIC) in test [13] is 2 µM (≈ 5.72 µg/mL); in [14], 2 µM (≈ 5.72 µg/mL); in test [15] it was 4 µM (≈ 11.4 µg/mL); in [16], > 64 µM; in test [17], 8 µM (≈ 22.9 µg/mL).
For the compound `CC[C@H](C)[C@H](N)C(=O)N[C@H](C(=O)N[C@@H](CS)C(=O)N[C@@H](CCCN=C(N)N)C(=O)N[C@@H](CCCCN)C(=O)N1CCC[C@H]1C(=O)N[C@H](C(=O)N[C@H](C(=O)N[C@@H](CS)C(=O)N[C@@H](CCCN=C(N)N)C(=O)N[C@@H](CCCCN)C(=O)N1CCC[C@H]1C(=O)N[C@H](C(=O)N[C@H](C(=O)N[C@@H](CS)C(=O)N[C@@H](CCCN=C(N)N)C(=O)N[C@@H](CCCCN)C(=O)N1CCC[C@H]1C(=O)N[C@H](C(=O)N[C@H](C(N)=O)[C@@H](C)CC)[C@@H](C)CC)[C@@H](C)CC)[C@@H](C)CC)[C@@H](C)CC)[C@@H](C)CC)[C@@H](C)CC` [IICRKPIICRKPIICRKPII], the MIC was > 64 µM in test [1]; 4 µM (≈ 9.5 µg/mL) in test [2]; ≥ 32 µM in [9]; ≥ 64 µM in test [10]; > 64 µM in test [11]; 64 µM (≈ 152 µg/mL) in [5]. Besides, the minimum inhibitory concentration (MIC) in [12] is > 64 µM; in test [13], 8 µM (≈ 19 µg/mL); in [14], 4 µM (≈ 9.5 µg/mL); in test [15], 8 µM (≈ 19 µg/mL); in [16] it was 64 µM (≈ 152 µg/mL); in test [17], 16 µM (≈ 38 µg/mL).
Turning to `CC[C@H](C)[C@H](NC(=O)[C@H](CCCCN)NC(=O)[C@@H](N)CCCN=C(N)N)C(=O)N[C@@H](CCCCN)C(=O)N[C@@H](CCCN=C(N)N)C(=O)N[C@@H](Cc1ccc(O)cc1)C(=O)N[C@@H](CC(C)C)C(=O)N[C@@H](CCCN=C(N)N)C(=O)N[C@@H](CCCN=C(N)N)C(=O)N[C@@H](CCSC)C(=O)N[C@H](C(=O)N[C@H](C(=O)N[C@@H](Cc1c[nH]c2ccccc12)C(=O)O)[C@@H](C)CC)[C@@H](C)CC` [RKIKRYLRRMIIW], the MIC is ≥ 218 µM in test [18]; 13.6 µM (≈ 25 µg/mL) in test [19]; 13.6 µM (≈ 25 µg/mL) in test [20]; 27.3 µM (≈ 50 µg/mL) in test [21]; 13.6 µM (≈ 25 µg/mL) in test [22].
Regarding `CC[C@H](C)[C@H](NC(=O)[C@H](CCCN=C(N)N)NC(=O)[C@H](CO)NC(=O)[C@H](CC(C)C)NC(=O)[C@@H](N)CCCN=C(N)N)C(=O)N[C@H](C(=O)N[C@H](C(=O)N[C@H](C(=O)N[C@@H](CCCN=C(N)N)C(=O)N[C@H](C(=O)N[C@@H](CS)C(=O)N[C@@H](CCCN=C(N)N)C(N)=O)C(C)C)[C@@H](C)CC)C(C)C)C(C)C` [RLSRIVVIRVCR], the MIC was 10.9 µM (≈ 16 µg/mL) in test [1]; 10.9 µM (≈ 16 µg/mL) in test [3]; ≥ 43.5 µM in test [23]; 0.34 µM (≈ 0.5 µg/mL) in test [24]; 10.9 µM (≈ 16 µg/mL) in test [25]; 2.72 µM (≈ 4 µg/mL) in test [14]. Besides, the MIC in [26] was 5.44 µM (≈ 7.99 µg/mL); in [27] it was 0.34 µM (≈ 0.5 µg/mL); in test [28], 1.36 µM (≈ 2 µg/mL); in [29] it was 5.44 µM (≈ 7.99 µg/mL); in [30], 0.34 µM (≈ 0.5 µg/mL).

Source of the values: DBAASP.
